What all share (assay): growth of human tumour cells (NCI), 48 h
Assay [1] concerns SNB-78 CNS.
For assay [2], the system named is UACC-257 melanoma.
Assay [3] has as its system SW-620 colon.
For assay [4], the system named is TK-10 renal.
Assay [5] concerns SN12C renal.
The test system of assay [6] is M14 melanoma.
The subject of assay [7] is SK-MEL-28 melanoma.
In assay [8] the test system is HS 578T breast.
In assay [9] the test system is MDA-MB-435.
The subject of assay [10] is MDA-N.

Where “and” joins values, the source holds several entries; their conditions need not be identical. Identical values can stand only once.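 Compound exposure: 48 hours, 5 concentrations, 96-well plates. At the GI50, growth is halved. TGI marks complete inhibition of growth.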

Regarding `O=C(CCN1CCCCC1CO)Nc1ccc2c(c1)C(=O)c1ccc(NC(=O)CCN3CCCCC3CO)cc1C2=O` (stereo not given), the TGI came to 34.6 µM in [1]; 91.3 µM in assay [2]; 27 µM in assay [3]; 27.2 µM in assay [4]; 25.5 µM in assay [5]; 22.4 µM in assay [6]. The compound further displayed a TGI in assay [7] of 28.4 µM.
As for `Cc1c(-c2coc(-c3ccc(Cl)cc3)n2)c(=O)n(-c2ccccc2)n1C`, the TGI in assay [1], in assay [2], in [4], in assay [5], in assay [6] and in assay [7] was above 100 µM throughout.
Take `CCN(CC)c1ccc(C(=C2C=CC(=[N+](CC)CC)C=C2)c2ccccc2)cc1`: the TGI in assay [1] was found to be 0.237 µM; in assay [2], 0.18 µM; in [3], 0.138 µM; in assay [5], 0.0878 µM; in [6] it was 0.641 µM; in assay [7], 0.351 µM.
In the case of `CCC1(O)CN(CCOC)[C@H]2C[C@@H]1C(=O)c1[nH]c3ccccc3c12` (stereo not given in full), the TGI in [8], in assay [2], in [3], in assay [4], in [5] and in [6] was above 100 µM in each case. The TGI in assay [7], in assay [9] and in assay [10] was above 100 µM each time.
In the case of `CN1C/C(=C\c2ccccc2[N+](=O)[O-])C(=O)/C(=C/c2ccccc2[N+](=O)[O-])C1`, the GI50 was 1.97 µM and 0.759 µM in [8]; 0.265 µM and 1.46 µM in assay [2]; 0.292 µM in assay [3]; 1.98 µM and 0.809 µM in [5]; 1.76 µM and 0.298 µM in assay [6]; 0.906 µM and 1.83 µM in assay [7]. For the same compound, the GI50 in assay [9] is 0.86 µM and 0.254 µM; in assay [10], 0.783 µM and 0.298 µM. The TGI in assay [8] is 24 µM and 3.42 µM; in [2], 0.481 µM and 3.5 µM; in assay [3] it was 0.886 µM and 0.603 µM; in assay [4] it was 2.42 µM and 2.17 µM; in [5], 4.88 µM and 2.22 µM; in [6], 4.17 µM and 0.876 µM. The TGI in assay [7] is 3.15 µM and 4.18 µM; in assay [9] it was 3.1 µM and 0.706 µM; in [10], 2.91 µM and 1.16 µM.
`COc1cc(C2S/C(=C/c3ccccc3)C(=O)N2c2ccc(Cl)cc2)cc(OC)c1OC` (stereo not given): the TGI in assay [8] was above 100 µM; in assay [2], above 100 µM; in [3] it was above 100 µM; in assay [4] it was above 100 µM; in assay [5], above 100 µM; in assay [6], above 46 µM. Moreover, the figures for the TGI in [7], in [9] and in [10] were above 100 µM, 24.8 µM and 34.3 µM, respectively.
As to `CCOP(=O)(OCC)C(F)(F)CC1CCCCC1`, the TGI in [8], in assay [2], in assay [3], in assay [4], in assay [5] and in assay [6] was above 10 µM in each case. The TGI in assay [7], in assay [9] and in assay [10] was above 10 µM in each case.
Turning to `C=CCOn1c(C=C)nc2c(C)cccc21`, the TGI in assay [8] is above 100 µM; in assay [2], 12.1 µM; in assay [3], 11.2 µM; in assay [4], 8.05 µM; in assay [5] it was 13.2 µM; in assay [6], 12.3 µM. The TGI stood at 25.7 µM in [7], 3.4 µM in assay [9] and 11.4 µM in assay [10].
For `CSC1(SC)CCCCCCCCCCC1`, the TGI is above 100 µM in [8]; 74 µM in assay [2]; above 100 µM in assay [3]; above 100 µM in [4]; above 100 µM in assay [5]; above 100 µM in assay [6]. For the same compound, the TGI in [7], in [9] and in assay [10] was above 100 µM in each case.
In the case of `c1csc(-c2ccc(-c3ccc(-c4cccs4)s3)s2)c1`, the TGI in assay [8], in assay [2], in assay [3], in assay [4], in assay [5] and in [6] was above 100 µM throughout. In addition, the TGI in assay [7], in [9] and in [10] was above 100 µM throughout.
In the case of `CC(=O)c1nccc2c1c(C)nc1ccccc12`, the TGI in assay [8] was 96.3 µM; in assay [2] it was above 100 µM; in [3] it was above 100 µM; in assay [4], above 100 µM; in [5] it was above 100 µM; in [6], above 100 µM. The TGI in assay [7], in assay [9] and in assay [10] was above 100 µM throughout.
Take `O=C1O/C(=C\c2ccc(O)cc2)C(c2ccc(O)c(Cl)c2)=C1Br`: the TGI in [8] turned out to be 59.1 µM; in assay [2] it was 26.8 µM; in [3], 37.9 µM; in assay [4], 49.9 µM; in assay [5], 46.4 µM; in [6] it was 26.4 µM. For the same compound, the TGI is 26.2 µM in [7], 53.2 µM in assay [9] and above 100 µM in assay [10].
`COc1ccc(CC2C(=O)NC(C)C(=O)N(C)C3Cc4ccc(cc4)Oc4cc(ccc4O)CC(C(=O)NC(C)C(=O)NC(C)C(=O)N2C)N(C)C3=O)cc1` (stereo not given): the TGI in assay [1] was 0.0256 µM; in [4], 0.979 µM and 0.21 µM; in assay [5] it was 0.281 µM and 0.536 µM; in assay [6], 0.518 µM and 0.36 µM. Moreover, the GI50 in [2] was below 0.0001 µM; in [3], 0.000157 µM; in assay [5], 0.208 µM; in [6], 0.0107 µM.
Consider `O=C(CCCN1CCc2[nH]c3cc(F)ccc3c2C1)c1ccc(F)cc1`, for which the TGI is 30 µM in assay [8]; 28.8 µM in assay [2]; above 100 µM in [3]; 24.9 µM in [4]; 27.7 µM in assay [5]; 22.2 µM in assay [6]. Also, the TGI in [7] turned out to be 34.9 µM; in [9], 25.6 µM; in assay [10] it was 29.2 µM.
